We go through one molecule from paper PMC12494546, “Structural basis of heme scavenging by the ChtA and HtaA hemophores in Corynebacterium diphtheriae” (The Journal of Biological Chemistry, 2025).

Assay [1] has as its target T1, ChtA^CR (WT) (Corynebacterium diphtheriae, UniProt Q6NGJ3).
T1 construct: gene DIP1520; CR domain, ChtA residues 112-291 (K112-G291); N-terminal SUMO/6xHis tag removed by ULP1; apo-form
In words: Isothermal titration calorimetry with apo-protein injected into hemin chloride at 25 °C in 50 mM Tris-HCl pH 8.0, 200 mM NaCl, 5% DMSO, fitted to a one-site binding model. The conditions noted are these: SEM, n = 3. The source says: (§1) Isothermal titration calorimetry
(§2) Protein samples were equilibrated in titration buffer supplemented with 5% (v/v) DMSO. […] Binding isotherms were fit to a one-site binding model using the program ORIGIN ([91]).
Background: In ITC the heat of successive injections is recorded.

Assay [2] concerns the target T2, K177G (Corynebacterium diphtheriae, UniProt Q6NGJ3, K177G).
T2 construct: gene DIP1520; CR domain, ChtA residues 112-291; N-terminal SUMO/6xHis tag removed by ULP1; apo-form
The assay is described as above. Conditions: SEM, n = 3.
Description: as §1, §2

Assay [3] deals with T3, K177G + Y178H (Corynebacterium diphtheriae, UniProt Q6NGJ3, K177G/Y178H).
T3 construct: gene DIP1520; CR domain, ChtA residues 112-291; N-terminal SUMO/6xHis tag removed by ULP1; apo-form
Described as above. Conditions: SEM, n = 3.
Description: as §1, §2

The target in assay [4] is T4, Y129A (Corynebacterium diphtheriae, UniProt Q6NGJ3, Y129A).
T4 construct: gene DIP1520; CR domain, ChtA residues 112-291; N-terminal SUMO/6xHis tag removed by ULP1; apo-form
The assay is described as above. Conditions: n = 3.
Description: as §1, §2

The target of assay [5] is T5, Y178A (Corynebacterium diphtheriae, UniProt Q6NGJ3, Y178A).
T5 construct: gene DIP1520; CR domain, ChtA residues 112-291; N-terminal SUMO/6xHis tag removed by ULP1; apo-form
T5 sequence (Q6NGJ3 112-291 Y178A): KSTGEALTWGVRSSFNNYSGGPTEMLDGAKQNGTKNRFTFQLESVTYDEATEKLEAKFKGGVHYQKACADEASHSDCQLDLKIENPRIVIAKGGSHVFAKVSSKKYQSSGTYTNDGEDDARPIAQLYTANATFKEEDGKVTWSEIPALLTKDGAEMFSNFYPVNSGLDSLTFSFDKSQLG
Described as above. Conditions: SEM, n = 3.
Description: as §1, §2

For assay [6], the target named is T6, Y178H (Corynebacterium diphtheriae, UniProt Q6NGJ3, Y178H).
T6 construct: gene DIP1520; CR domain, ChtA residues 112-291; N-terminal SUMO/6xHis tag removed by ULP1; apo-form
The description is as above. Conditions: SEM, n = 3.
Description: as §1, §2

The target of assay [7] is T7, HtaA^CR1 (Corynebacterium diphtheriae, UniProt Q6NIZ1).
T7 construct: gene DIP0625; N-terminal CR domain CR1, HtaA residues 36-221 (methods; S37-G214 in results); N-terminal SUMO/6xHis tag removed by ULP1
T7 sequence (Q6NIZ1 entry or part of it): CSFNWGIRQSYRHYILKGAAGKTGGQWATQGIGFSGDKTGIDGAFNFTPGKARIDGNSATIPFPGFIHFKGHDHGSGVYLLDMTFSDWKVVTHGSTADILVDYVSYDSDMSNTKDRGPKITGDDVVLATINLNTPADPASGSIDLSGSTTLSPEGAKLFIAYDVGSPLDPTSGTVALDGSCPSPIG
In words: Hemin partitioning between pairs of CR domains at equilibrium measured by native nano-ESI-MS in 50 mM ammonium acetate pH 6.9 at 24 °C, with Krel converted to KD using the ITC KD of ChtA^CR as reference. It counts as binding. Conditions: read-out: estimated KD values for hemin. The source says: (§3) The C. diphtheriae hemin-uptake system contains six CR domains that are located at distinct sites outside the cell (Fig. 1). […] Together, they represent nearly the full complement of C. diphtheriae’s CR domains (only the domains from ChtB and ChtC are missing, but they are expected to have similar binding properties as their paralogs, HtaB and ChtA, respectively). […] Similar measurements were made for the following protein pairs: HtaA^CR2/HtaB^CR, HtaA^CR1/HtaB^CR, HtaA^CR2/HtaA^CR1, ChtA^CR/HtaA^CR2, and ChtA^CR/HtaB^CR (Table S4).
(§4) nESI-MS was used for ligand (heme)-competition experiments between CR domain pairs to determine their relative heme dissociation constant Krelative (Krel) ([37], [56]). In this approach, two different CR domains (e.g. a >90% heme-loaded “heme donor” and a <10% heme-loaded “heme acceptor” CR domain) are mixed and allowed to come to equilibrium (>6 h, 24 °C). The resulting mixture is then analyzed by nESI-MS, where the apo- and holo-abundance of each CR domain is determined from the sum peak intensity from each of their charge states as described previously ([37]). The relative affinity between the CR pair tested can be determined by their nESI-MS abundances according to Equation 1, which is derived from the ratio of each CR’s KD for heme. Importantly, this analysis is independent of [heme] and Krel should be consistent across different concentrations of [heme donor] and [heme acceptor]; thus, we used at least three different holo-donor and apo-acceptor stoichiometry ratios to determine each Krel reported in Table S4.(eq. 1) KRelative=[CR^hemeacceptor][CR^hemedonor·heme]/[CR^hemedonor][CR^hemeacceptor·heme]=Ab(CR^hemeacceptor)Ab(CR^hemedonor·heme)/Ab(CR^hemedonor)Ab(CR^hemeacceptor·heme)
(§5) For nESI-MS heme-competition experiments, CR domains were first buffer-exchanged into 50 mM ammonium acetate (pH 6.9) using dialysis or gel filtration and protein concentration was determined by bicinchoninic acid assay or UV-visible absorbance at 280 nm. […]

Assay [8] addresses T8, HtaA^CR2 (Corynebacterium diphtheriae, UniProt Q6NIZ1).
T8 construct: gene DIP0625; C-terminal CR domain CR2, HtaA residues 344-506 (G344-G506); N-terminal SUMO/6xHis tag removed by ULP1
Described as above. Conditions: read-out: estimated KD values for hemin. The assay is classed as binding.
Description: as §3, §4, §5

Assay [9] concerns the target T9, HtaB^CR (Corynebacterium diphtheriae, UniProt Q6NIY7).
T9 construct: gene DIP0629; CR domain, HtaB residues 30-273; N-terminal SUMO/6xHis tag removed by ULP1
Described as above. The assay is classed as binding. The conditions noted are these: read-out: estimated KD values for hemin.
Description: as §3, §4, §5

T1 sequence (Q6NGJ3 entry or part of it): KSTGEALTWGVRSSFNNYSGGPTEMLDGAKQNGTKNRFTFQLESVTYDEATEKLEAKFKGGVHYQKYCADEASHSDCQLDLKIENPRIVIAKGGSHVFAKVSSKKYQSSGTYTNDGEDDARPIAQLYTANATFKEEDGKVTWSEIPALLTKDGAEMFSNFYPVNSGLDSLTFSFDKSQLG
T9 sequence (Q6NIY7 entry or part of it): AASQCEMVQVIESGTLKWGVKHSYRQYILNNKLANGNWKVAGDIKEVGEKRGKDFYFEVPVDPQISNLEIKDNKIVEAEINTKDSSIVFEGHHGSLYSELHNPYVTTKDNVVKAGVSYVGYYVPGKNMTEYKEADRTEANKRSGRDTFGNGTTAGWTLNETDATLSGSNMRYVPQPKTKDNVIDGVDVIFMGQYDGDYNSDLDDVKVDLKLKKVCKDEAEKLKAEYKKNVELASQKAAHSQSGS
T8 sequence (Q6NIZ1 entry or part of it): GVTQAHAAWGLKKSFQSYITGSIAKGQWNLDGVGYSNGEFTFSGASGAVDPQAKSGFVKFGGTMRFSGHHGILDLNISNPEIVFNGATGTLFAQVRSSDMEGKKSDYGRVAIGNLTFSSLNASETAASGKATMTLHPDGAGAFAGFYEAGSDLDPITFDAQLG
T2 sequence (Q6NGJ3 112-291 K177G): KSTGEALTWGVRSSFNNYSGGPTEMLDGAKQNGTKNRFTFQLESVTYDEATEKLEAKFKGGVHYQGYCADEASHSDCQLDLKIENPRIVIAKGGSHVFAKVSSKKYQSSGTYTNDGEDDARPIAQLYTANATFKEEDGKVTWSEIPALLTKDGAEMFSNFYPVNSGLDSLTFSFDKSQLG

The term Kd denotes the equilibrium constant for the complex coming apart. In the case of `C=CC1=C(C)c2cc3[nH]c(cc4nc(cc5[nH]c(cc1n2)c(C)c5CCC(=O)O)C(CCC(=O)O)=C4C)c(C)c3C=C.[Fe+3]` [hemin, ferric heme (iron(III)-protoporphyrin IX; used as hemin chloride)], the Kd in assay [1] is 22.4 ± 5.3 nM; in [2], 23.6 ± 0.8 nM; in assay [3], 27.1 ± 9 nM; in [4], greater than 500 nM; in [5] it was 46.6 ± 9.6 nM; in assay [6], 54.8 ± 1.9 nM. The Kd in assay [7] was 1.1 nM; in [8] it was 0.85 nM; in assay [9], 5.4 nM.
